Consider 17 molecules from patent publication US11420976B2 (priority 2020, dated 2022).

Assay [1] relates to Human RSV-A (“Long” strain). Put plainly: RSV-A assay (CPE, ATPlite readout in Hep-2 cells). Particulars: human respiratory syncytial virus, 120 h; Hep-2 cells, MOI 0.1, 5-day incubation, ATPlite; read-out: Human RSV-A (“Long” strain) EC50. The format is cell-based. An excerpt:
Hep-2 cells, (originally derived from tumors grown in irradiated-cortisonised weanling rats that had been injected with epidermoid carcinoma tissue from a person's larynx, but later found to be indistinguishable from HeLa cells by PCR DNA analysis), were used for the culturing of genotype A, “Long” strain RSV. Flasks were inoculated with RSV and viral stocks were collected once cytopathic effect (CPE) was greater than 90%. Viral stocks in 25% sucrose media were snap frozen using liquid nitrogen to increase viral stability. Viral stock titers were quantified by tissue culture infectious dose 50% (TCID50) using 8,000 cells per well and 3-fold viral dilutions across a 96-well plate, cultured for 4 days. Viral stock titers were also quantified by a plaque forming unit assay, as described elsewhere.
Following extensive parameter testing, the final assay is run as follows: Hep-2 cells are seeded into the inner 60 wells of a 96-well plate at 8,000 cells per well in a volume of 50 μL using Growth Media (DMEM without phenol red, 1% L-Glut, 1% Penn/Strep, 1% nonessential amino acids, 10% heat-inactivated FBS). 2-fold serial dilutions of control and test compounds are added to the wells in duplicate in a total volume of 25 μL. Viral stock is then added to the wells at a multiplicity of infection (MOI) of 0.1 in a volume of 25 μL, bringing the total volume of each well to 100 μL. The MOI is calculated using the PFU/mL, or TCID50 if unavailable. Each 96-well plate has a control column of 6 wells with cells and virus but no compound (negative control, max CPE), a column with cells but no compound or virus (positive control, minimum CPE), and a column with no cells or virus or compound (background plate/reagent control). The control wells with cells but no virus are given an additional […], of growth media containing an equal quantity of sucrose as those wells receiving the viral stock in order to keep consistent in media and volume conditions. The outer wells of the plate are filled with 125 μL of moat media (DMEM, 1% Penn/Strep) to act as a thermal and evaporative moat around the test wells. Following a 5-day incubation period, the plates are read using ATPlite (50 uL added per well), which quantifies the amount of ATP (a measure of cell health) present in each well. Assay plates are read using the Envision luminometer. […] EC50 ranges are as follows: A<0.2 μM; B≥0.2 μM.

Assay [2] has as its system rHMPV-GFP (recombinant HMPV CAN97-83, MPV-GFP1). Put plainly: HMPV antiviral assay (eGFP fluorescence in Vero E6 cells). Type of assay: cell-based. Particulars: Vero C1008, 120 h, read-out: rHMPV-GFP EC50. As to the method:
HMPV antiviral activity was evaluated using a recombinant version of HMPV CAN97-83 engineered to contain the coding sequence for enhanced green fluorescence protein (eGFP) in the 3′ end of the virus genome (MPV-GFP1, ViraTree). Vero E6 cells (ATCC #CCL-7) were seeded at a density of 12,000 cells/100 μL/well into 96-well cell plates (VENDOR) one day prior to the assay. On the day of screening, the cell culture medium was aspirated from the wells and cells were washed twice with serum-free Eagle's Modified Essential Medium (EMEM, ATCC #) containing 1% penicillin-streptomycin (Invitrogen) (SF-EMEM). Cell washes were performed by dispensing 100 μL SF-EMEM per well and immediately aspirating the wash medium from the well. Following the second wash step, serum-free OptiMEM (Invitrogen, Cat No.) (SF-OptiMEM) containing 0.5 μg/mL TPCK-Trypsin (VENDOR) and 1% penicillin-streptomycin was added to the cells at 50 μL/well. Compounds were added into the 96-well plates using a JANUS automated liquid handling system (VENDOR). Compounds were initially diluted 1:50 into an intermediate 96-well plate containing SF-OptiMEM prior to transfer to the assay plate (25 μL/well). Each of the test compounds was tested in duplicate wells at final concentrations starting from 8 μM or 2 μM using ½ stepwise dilutions for a total of 8 points. Virus infection was performed by preparing a working stock of MPV-GFP1 at a multiplicity of infection (MOI) equal to 0.05/25 μL and aliquoting 25 μL of virus inoculum to the compound and positive control wells. SF-OptiMEM was added (25 μL/well) to the appropriate wells to serve as a virus-free negative control for the assay. The final DMSO concentration of all wells is 0.5%. Plates were incubated at 32° C., 5% CO2 for 5 days. After 5 days incubation, eGFP fluorescence intensity was measured at […] using a Spectramax i3X plate reader (VENDOR). Percent viral inhibition was calculated using the following equation: y=[[…]]×100 Where XQ is the fluorescence intensity measured in a well containing recombinant MPV-GFP1-infected, compound-treated cells and XP is the average fluorescence intensity measured in the wells containing untreated cells infected with recombinant virus. EC50 values were then calculated by non-linear regression using a four parameter curve logistic equation. The curve fit model employed was XLFit Dose Response One Site Model 200: y=(A+(B/(1+((x/C)^D)))) Where A is the minimum y value, B is the maximum y value, C is the log EC50 value, and D is the slope factor. The EC50 of each compound is listed in Table 2 and EC50 ranges are as follows: A<0.2 μM; B≥0.2 μM.

SMILES strings stand for the structures. Bounds are passed on as bounds.

For `COC[C@](O)(CNC(=O)c1ccc(OC2CC2)c(OC)c1)c1cc2c(c(-c3ccc(F)cc3)n1)OC[C@@]2(N)C(F)(F)F` [Example 49, N—((S)-2-((R)-3-amino-7-(4-fluorophenyl)-3-(trifluoromethyl)-2,3-dihydrofuro[2,3-c]pyridin-5-yl)-2-hydroxy-3-methoxypropyl)-4-cyclopropoxy-3-methoxybenzamide], the EC50 is below 200 nM in assay [1] and above 200 nM in assay [2].

For the molecule `COc1cc(C(=O)NC[C@](O)(c2cc3c(c(-c4ccc(F)cc4)n2)OC[C@@]3(N)C(F)(F)F)C2CC2)ccc1OC1CC1` [Example 9, N—((S)-2-((R)-3-amino-7-(4-fluorophenyl)-3-(trifluoromethyl)-2,3-dihydrofuro[2,3-c]pyridin-5-yl)-2-cyclopropyl-2-hydroxyethyl)-4-cyclopropoxy-3-methoxybenzamide], the EC50 in assay [1] and in assay [2] was below 200 nM throughout.

On to `C[C@](O)(CNC(=O)c1ccc(OC2CC2)c(OC2CC2)c1)c1cc2c(c(-c3ccc(F)c(Cl)c3)n1)OC[C@@]2(N)C(F)(F)F` [Example 28, N—((S)-2-((R)-3-amino-7-(3-chloro-4-fluorophenyl)-3-(trifluoromethyl)-2,3-dihydrofuro[2,3-c]pyridin-5-yl)-2-hydroxypropyl)-3,4-dicyclopropoxybenzamide], for which the concentration for a half-maximal effect (EC50) in assay [1] and in assay [2] was below 200 nM each time.

As to `COc1cc(C(=O)NC[C@](C)(O)c2cc3c(c(-c4ccc(F)cc4)n2)OC[C@@]3(N)C(F)(F)F)ccc1OC1CC1` [Example 7, N—((S)-2-((R)-3-amino-7-(4-fluorophenyl)-3-(trifluoromethyl)-2,3-dihydrofuro[2,3-c]pyridin-5-yl)-2-hydroxypropyl)-4-cyclopropoxy-3-methoxybenzamide], the EC50 in assay [1] and in assay [2] was below 200 nM in each case.

For the molecule `COc1cc(C(=O)NC[C@H](O)c2cc3c(c(-c4ccc(F)cc4)n2)OC[C@@]3(N)C(F)(F)F)ccc1OC1CC1` [Example 47], the EC50 in assay [1] and in assay [2] was above 200 nM in each case.

Turning to `N[C@@]1(C(F)(F)F)COc2c1cc([C@@](O)(CNC(=O)c1cc(OC3CC3)c3ncccc3c1)C1CC1)nc2-c1ccc(F)c(Cl)c1` [Example 30, N—((S)-2-((R)-3-amino-7-(3-chloro-4-fluorophenyl)-3-(trifluoromethyl)-2,3-dihydrofuro[2,3-c]pyridin-5-yl)-2-cyclopropyl-2-hydroxyethyl)-8-cyclopropoxyquinoline-6-carboxamide], the EC50 in assay [1] is below 200 nM; in assay [2], above 200 nM.

For `COc1cc(C(=O)NCC(C)c2cc3c(c(-c4ccc(F)c(F)c4)n2)OC[C@@]3(N)C(F)(F)F)ccc1OC1CC1` (stereo partly drawn) [Example 48], the EC50 in assay [1] and in assay [2] was above 200 nM throughout.

With `COc1cc(C(=O)NC[C@@](O)(CO)c2cc3c(c(-c4ccc(F)cc4)n2)OC[C@@]3(N)C(F)(F)F)ccc1OC1CC1` [Example 51, N—((S)-2-((R)-3-amino-7-(4-fluorophenyl)-3-(trifluoromethyl)-2,3-dihydrofuro[2,3-c]pyridin-5-yl)-2,3-dihydroxypropyl)-4-cyclopropoxy-3-methoxybenzamide], the concentration giving a half-maximal response (EC50) in assay [1] is below 200 nM; in assay [2], above 200 nM.

Regarding `COc1cc(C(=O)NC[C@](O)(c2cc3c(c(-c4ccc(F)cc4)n2)OC[C@]3(N)C(F)(F)F)C(F)(F)F)cc2cccnc12` [Example 6, N—((S)-2-((S)-3-amino-7-(4-fluorophenyl)-3-(trifluoromethyl)-2,3-dihydrofuro[2,3-c]pyridin-5-yl)-3,3,3-trifluoro-2-hydroxypropyl)-8-methoxyquinoline-6-carboxamide], the EC50 is below 200 nM in assay [1] and above 200 nM in assay [2].

In the case of `N[C@@]1(C(F)(F)F)COc2c1cc([C@@](O)(CNC(=O)c1cc(OC3CC3)c3nn(C4CC4)cc3c1)C1CC1)nc2-c1ccc(F)c(Cl)c1` [Example 55d, N—((S)-2-((R)-3-amino-7-(3-chloro-4-fluorophenyl)-3-(trifluoromethyl)-2,3-dihydrofuro[2,3-c]pyridin-5-yl)-2-cyclopropyl-2-hydroxyethyl)-7-cyclopropoxy-2-cyclopropyl-2H-indazole-5-carboxamide], the EC50 in assay [1] and in assay [2] was below 200 nM each time.

In the case of `COc1cc(C(=O)NC[C@](O)(c2cc3c(c(-c4ccc(F)cc4)n2)OC[C@@]3(N)C(F)(F)F)C2CC2)cc2sc(N)nc12` [Example 53, 2-amino-N—((S)-2-((R)-3-amino-7-(4-fluorophenyl)-3-(trifluoromethyl)-2,3-dihydrofuro[2,3-c]pyridin-5-yl)-2-cyclopropyl-2-hydroxyethyl)-4-methoxybenzo[d]thiazole-6-carboxamide], the EC50 in assay [1] is below 200 nM.

With `Cn1cc2cc(C(=O)NC[C@](O)(c3cc4c(c(-c5ccc(F)cc5)n3)OC[C@@]4(N)C(F)(F)F)C3CC3)cc(F)c2n1` [Example 64], in assay [1], the EC50 was below 200 nM.

For the molecule `COc1cc(C(=O)NC[C@](O)(c2cc3c(c(-c4ccc(F)cc4)n2)OC[C@@]3(NC(=O)CO)C(F)(F)F)C(F)(F)F)ccc1OC1CC1` [Example 14, 4-cyclopropoxy-3-methoxy-N—((S)-3,3,3-trifluoro-2-((R)-7-(4-fluorophenyl)-3-(2-hydroxyacetamido)-3-(trifluoromethyl)-2,3-dihydrofuro[2,3-c]pyridin-5-yl)-2-hydroxypropyl)benzamide], the EC50 in assay [1] is below 200 nM.

Turning to `C[C@](O)(CNC(=O)c1cc(OC2CC2)c2ncccc2c1)c1cc2c(c(-c3ccc(F)c(Cl)c3)n1)OC[C@@]2(N)C(F)(F)F` [Example 56], the EC50 in assay [1] was above 200 nM.

As for `COc1cc(C(=O)NC[C@](O)(c2cc3c(c(-c4ccc(F)cc4)n2)OC[C@@]3(N)C(F)(F)F)C(F)(F)F)ccc1OCCO` [Example 31], the EC50 in assay [1] was above 200 nM.

With `Nc1nc2c(F)cc(C(=O)NC[C@](O)(c3cc4c(c(-c5ccc(F)cc5)n3)OC[C@@]4(N)C(F)(F)F)C3CC3)cc2s1` [Example 54, 2-amino-N—((S)-2-((R)-3-amino-7-(4-fluorophenyl)-3-(trifluoromethyl)-2,3-dihydrofuro[2,3-c]pyridin-5-yl)-2-cyclopropyl-2-hydroxyethyl)-4-fluorobenzo[d]thiazole-6-carboxamide], in assay [1], the EC50 is below 200 nM.

As for `COCCOc1ccc(C(=O)NC[C@](O)(c2cc3c(c(-c4ccc(F)cc4)n2)OC[C@@]3(N)C(F)(F)F)C(F)(F)F)cc1OC` [Example 37], the EC50 in assay [1] is above 200 nM.
